Tests used:
[1] = test system: dentate gyrus granule cells (DGGCs); settings: Abramian et al., 2010, 2014; cited from earlier work
[2] = test system: dentate gyrus granule cells (DGGCs); format: cell-based, mouse; settings: protocol as FIG. 3
Experimental: Brain slices were prepared from 3- to 5-week-old male C57 mice. Mice were anesthetized with isoflurane, decapitated, and brains were rapidly removed and submerged in ice-cold cutting solution containing (mM): 126 NaCl, 2.5 KCl, 0.5 CaCl2, 2 MgCl2, 26 NaHCO3, 1.25 NaH2PO4, 10 glucose, 1.5 sodium pyruvate, and 3 kynurenic acid. Coronal 310 μm thick slices were cut with the vibratome VT1000S (Leica Microsystems, St Louis, Mo., USA). The slices were then transferred into incubation chamber filled with prewarmed (31-32° C.) oxygenated artificial cerebro-spinal fluid (ACSF) of the following composition (in mM): 126 NaCl, 2.5 KCl, 2 CaCl2, 2 MgCl2, 26 NaHCO3, 1.25 NaH2PO4, 10 glucose, 1.5 sodium pyruvate, 1 glutamine, 3 kynurenic acid and 0.005 GABA bubbled with 95% O2-5% CO2. Slices were allowed to recover at 32° C. for at least 1 hr before recording. Exogenous GABA was added in an attempt to standardize ambient GABA in the slice and provide an agonist source for newly inserted extrasynaptic GABAARs.
After recovery, a single slice was transferred to a submerged, dual perfusion recording chamber (Warner Instruments, Hamden, Conn., USA) on the stage of an upright microscope (Nikon FN-1) with a 40× water immersion objective equipped with DIC/IR optics. Slices were maintained at 32° C. and gravity-superfused with ACSF solution throughout experimentation and perfused at rate of 2 ml/min with oxygenated (O2/CO2 95/5%) ACSF.
Whole-cell currents were recorded from the dentate gyrus granule cells (DGGCs) in 310-μm-thick coronal hippocampal slices. Patch pipettes (5-7MΩ) were pulled from borosilicate glass (World Precision Instruments) and filled with intracellular solution of the composition (in mM) as follows: 140 CsCl, 1 MgCl2, 0.1 EGTA, 10 HEPES, 2 Mg-ATP, 4 NaCl and 0.3 Na-GTP (pH=7.2 with CsOH). A 5 min period for stabilization after obtaining the whole-cell recording conformation (holding potential of −60 mV) was allowed before currents were recorded using an Axopatch 200B amplifier (Molecular Devices), low-pass filtered at 2 kHz, digitized at 20 kHz (Digidata 1440A; Molecular Devices), and stored for offline analysis.
For tonic current measurements, an all-points histogram was plotted for a 10 s period before and during 100 μM picrotoxin application, once the response reached a plateau level. Recordings with unstable baselines were discarded. Fitting the histogram with a Gaussian distribution gave the mean baseline current amplitude and the difference between the amplitudes before and during picrotoxin was considered to be the tonic current. The negative section of the all-points histogram which corresponds to the inward IPSCs was not fitted with a Gaussian distribution (Kretschmannova et al., 2013; Nusser and Mody, 2002). Series resistance and whole-cell capacitance were continually monitored and compensated throughout the course of the experiment. Recordings were eliminated from data analysis if series resistance increased by >20%. Spontaneous inhibitory post-synaptic currents (sIPSCs) were analyzed using the mini-analysis software (version 5.6.4; Synaptosoft, Decatur, Ga.). Minimum threshold detection was set to 3 times the value of baseline noise signal. To assess sIPSC kinetics, the recording trace was visually inspected and only events with a stable baseline, sharp rising phase, and single peak were used to negate artifacts due to event summation. Only recordings with a minimum of 200 events fitting these criteria were analyzed. sIPSCs amplitude, and frequency from each experimental condition was pooled and expressed as mean±SEM. To measure sIPSC decay, 100 consecutive events were averaged and the decay was fitted to a double exponential and the weighted decay constant (tw) was determined. Statistical analysis was performed by using Student t-test (paired and unpaired where appropriate), where p<0.05 is considered significant.

[3] = test system: GABAA receptor β3 subunit S408/9; assay: Immunoblot of β3 S408/9 phosphorylation in hippocampal slices; format: cell-based, mouse; settings: 100 nM
Experimental: Asterisks represent a significant difference from control (ALLO: p<0.01, Student's t-test, n=10 slices, from 10 mice; SGE-516: p<0.05, Student's t-test, n=4 slices, from 4 mice). […] Asterisks represent a significant difference from control (ALLO: p<0.05, Student's t-test, n=8 slices; SGE-516: p<0.05, Student's t-test, n=4 slices).
Hippocampi were dissected out of acute slices from 8 to 12 week old C57/Bl6 mice and lysed with […] including: 20 mM Tris-HCl, 150 mM NaCl, 5 mM EDTA, 10 mM NaF, 2 mM Na3VO4, 10 mM pyrophosphate, 0.1% SDS and 1% Triton after drug treatment. The β3 subunit was isolated using immunoprecipitation with β3 antibodies, after correction for protein content and the specific activity of labeling. Results were attained by SDS/PAGE followed by autoradiography (Abramian et al., 2010). For biotinylation experiments hippocampi were dissected out of acute slices from 8 to 12 week old C57/Bl6 mice and incubated in artificial cerebrospinal fluid (ACSF) described above at 30° C. for 1 h for recovery before experimentation. Slices were then placed on ice and incubated for 30 min with 1 mg/mL NHS-SS-biotin (Pierce). Excess biotin was removed by a 50 mM glycine quenching buffer, followed by washing of slices three times in ice-cold ACSF. The tissue was snap frozen on dry ice for 5 min, thawed at 4° C. and lysed. The lysates were solubilized with 2% Triton at 4° C. on a rotating wheel for 1 h. The insoluble material was removed by centrifugation, and 350-500 μg of protein lysate were incubated with NeutrAvidin beads (Pierce) for 18-24 h at 4° C. Bound material was eluted with sample buffer and subjected to SDS/PAGE and then immunoblotted with the indicated antibodies. Blots were then quantified using the CCD-based ChemiDoc XRS ? system. Antibodies against the β3 subunit and the phospho-β3 antibody were generated and verified by the laboratory of S.J.M. (Vien et al., 2015).
Treatment of hippocampal slices with SGE-516 increased the phosphorylation of S408/9 measured using pS408/9 antibodies. To produce antibodies specific for phosphorylated S443, rabbits were injected with a synthetic peptide corresponding to residues […] of the murine α4 subunit in which the serine residue corresponding to S443 was chemically phosphorylated; […]. Hippocampal slices were treated with vehicle (Con), or SGE-516 for 20 min. Slices were immunoblotted with pS408/9, β3, or actin antibodies. The ratio of pS408/9/β3 immunoreactivity was then normalized to control slices (100%=the line).
Hippocampal slices were treated with 100 nM ALLO or P4 (progesterone), and S408/9 phosphorylation was then determined as detailed above, n=4 slices (FIG. 18D). Hippocampal slices were treated with 100 nM ORG (FIG. 18E). S408/9 phosphorylation was examined using immunoblotting. […]

GT1-7 cells [4] = assay: Immunoblot of β3 S408/9 phosphorylation in GT1-7 cells; format: cell-based; settings: 100 nM, 15 min
Experimental: GT1-7 cells that co-express mPRα and GABAARs were used to measure the level of phosphorylation at S408/9 position of β3 subunit. […] Expression of mPRα was confirmed using western blotting.
GT1-7 cells were treated with 100 nM AllO or P4 for 15 min and immunoblotted with antibodies specifically recognizing β3, actin, and […] β3 subunit (pS408/9). The ratio of pS408/9 β3 subunit immunoreactivity were then normalized to levels seen in vehicle treated to controls, n=6.

GT1-7 cells [5] = assay: Patch-clamp of GABA-induced currents (IGABA) in GT1-7 cells; format: cell-based; settings: 100 nM in electrolyte, GABA EC20, 20 min time course
Experimental: Patch-clamp recordings were made from GT1-7 cells. The magnitude of the GABA-induced currents (IGABA) at EC20 agonists concentration were then measured, in the presence of control electrolyte or that supplemented with 100 nM ALLO, or 100 nM ORG OD 02-0 over a time course of 20 min.

[6] = test system: GABAARs composed of α4β3 subunits; assay: Acute modulation of IGABA in HEK-293 expressing GABAARs; format: cell-based; settings: 100 mM (so in the source), rapidly applied with GABA
α4β3δ GABAA receptors = target: T1, α4β3δ GABAA receptors (Homo sapiens, UniProt O14764+P28472+P48169); assay: Whole-cell patch clamp: potentiation of GABA EC20 currents at recombinant α4β3δ GABAA receptors; format: cell-based; settings: data not shown
T1 construct: expressed in transfected cells; host or cells: CHO cells, transiently transfected (Lipofectamine)
Experimental: Cellular electrophysiology was used to measure the pharmacological properties of ALLO, ganaxolone and SGE-516 in heterologous cell systems. Compounds were tested for their ability to affect GABA mediated currents at a submaximal agonist dose (GABA EC20=2 μM).
LTK cells were stably transfected with the α1β2γ2 subunits of the GABA receptor and CHO cells are transiently transfected with the α4β3γ subunits via the Lipofecatamine method. Cells were passaged at a confluence of about 50-80% and then seeded onto 35 mm sterile culture dishes containing 2 ml culture complete medium without antibiotics or antimycotics. Cells were cultivated at a density that enabled the recording of single cells without visible connections to other cells.
Whole-cell currents were measured with HEKA EPC-10 amplifiers using PatchMaster software. Bath solution for all experiments contained (in mM): NaCl 137, KCl 4, CaCl2 1.8, MgCl2 1, HEPES 10, D-Glucose 10, pH 7.4 with NaOH. Intracellular (pipette) solution contained (in mM): KCl 130, MgCl2 1, Mg-ATP 5, HEPES 10, EGTA 5, pH 7.2 with KOH. During experiments, cells and solutions were maintained at room temperature (19° C.-30° C.). For manual patchclamp recordings, cell culture dishes were placed on the dish holder of the microscope and continuously perfused (1 ml/min) with bath solution. After formation of a Gigaohm seal between the patch electrode and the cell (pipette resistance range: 2.5 MΩ-6.0MΩ; seal resistance range: >1 GΩ) the cell membrane across the pipette tip was ruptured to assure electrical access to the cell interior (whole-cell patch configuration).
Cells were voltage-clamped at a holding potential of −80 mV. GABAA receptors were activated by 2 μM GABA and compounds were sequentially applied at increasing concentrations for 30 s prior to a 2 s application of GABA. GABA and compounds were applied to cells via the Dynaflow perfusion system (Cellectricon, Sweden). Test compounds were dissolved in DMSO to form 10 mM stock solution and serially diluted to 0.01, 0.1, 1, and 10 μM in bath solution. There was no effect on GABA currents when DMSO was applied to cells at its maximal concentration in solution (0.1%). All concentrations of test compound were tested on each cell. The relative percentage potentiation was defined as the peak amplitude in response to GABA EC20 in the presence of test compound divided by the peak amplitude in response to GABA EC20 alone, multiplied by 100.
ALLO and ganaxolone are known PAMs of both synaptic and extrasynaptic GABAAR-mediated currents. The ability of candidate compound SGE-516 to act as a PAM was compared to ALLO and ganaxolone using the whole-cell recordings of recombinant human GABAA receptors expressed in mammalian cells. The α1β2γ2 or α4β3δ subunit combinations were chosen as representatives of typical synaptic and extrasynaptic GABAA receptors respectively. Similar to previous reports (Botella et al., 2015), ALLO, ganaxolone and SGE-516 allosterically potentiated currents induced by EC20 concentration of GABA in a concentration-dependent manner in both synaptic- and extrasynaptic-type GABAARs.

T1 sequence (P48169 36-554): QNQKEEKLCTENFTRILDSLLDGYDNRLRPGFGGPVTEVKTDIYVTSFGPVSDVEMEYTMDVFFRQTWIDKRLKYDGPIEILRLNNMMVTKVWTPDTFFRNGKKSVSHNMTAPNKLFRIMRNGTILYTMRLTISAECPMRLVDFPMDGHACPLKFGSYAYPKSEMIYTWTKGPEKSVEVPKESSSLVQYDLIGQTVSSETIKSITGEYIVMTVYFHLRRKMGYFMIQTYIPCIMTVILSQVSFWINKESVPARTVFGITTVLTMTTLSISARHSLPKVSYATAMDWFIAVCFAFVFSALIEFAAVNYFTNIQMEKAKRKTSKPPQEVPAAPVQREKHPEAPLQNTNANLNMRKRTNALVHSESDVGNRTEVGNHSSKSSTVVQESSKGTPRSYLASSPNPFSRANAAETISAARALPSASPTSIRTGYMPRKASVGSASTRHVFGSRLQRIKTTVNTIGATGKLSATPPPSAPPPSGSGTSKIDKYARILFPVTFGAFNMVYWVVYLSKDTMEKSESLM
T1 sequence (P28472 26-473): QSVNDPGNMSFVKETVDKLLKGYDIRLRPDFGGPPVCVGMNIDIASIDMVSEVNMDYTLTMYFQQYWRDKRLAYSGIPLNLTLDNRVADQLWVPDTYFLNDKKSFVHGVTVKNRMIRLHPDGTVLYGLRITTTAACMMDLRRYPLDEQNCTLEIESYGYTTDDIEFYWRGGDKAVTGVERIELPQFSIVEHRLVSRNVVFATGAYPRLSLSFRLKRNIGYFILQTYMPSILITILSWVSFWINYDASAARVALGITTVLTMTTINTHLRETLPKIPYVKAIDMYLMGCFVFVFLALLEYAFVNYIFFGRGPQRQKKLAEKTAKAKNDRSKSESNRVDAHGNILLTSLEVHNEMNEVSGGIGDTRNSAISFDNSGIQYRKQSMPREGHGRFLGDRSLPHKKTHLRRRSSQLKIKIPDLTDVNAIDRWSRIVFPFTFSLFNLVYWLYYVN
T1 sequence (O14764 25-452): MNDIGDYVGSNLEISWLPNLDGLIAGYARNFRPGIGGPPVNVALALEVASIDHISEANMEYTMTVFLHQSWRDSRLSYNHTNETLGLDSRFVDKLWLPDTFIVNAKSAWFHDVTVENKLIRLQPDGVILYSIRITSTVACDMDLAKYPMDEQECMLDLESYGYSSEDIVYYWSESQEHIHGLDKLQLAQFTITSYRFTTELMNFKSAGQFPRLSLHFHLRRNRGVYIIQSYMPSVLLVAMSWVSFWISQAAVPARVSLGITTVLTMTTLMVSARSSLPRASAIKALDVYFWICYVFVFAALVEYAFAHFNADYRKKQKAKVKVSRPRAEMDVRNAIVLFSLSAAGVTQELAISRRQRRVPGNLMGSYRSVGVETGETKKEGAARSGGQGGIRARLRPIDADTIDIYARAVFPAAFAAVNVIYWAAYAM

C[C@]12CC[C@@H](O)C[C@H]1CC[C@@H]1[C@@H]2CC[C@]2(C)[C@@H](C(=O)CO)CC[C@@H]12 [THDOC, Tetrahydrodeoxycorticosterone]
sustained effect on GABAergic tonic current [1]: long lasting increase

CC(=O)[C@H]1CC[C@H]2[C@@H]3CCC4=CC(=O)CC[C@]4(C)[C@H]3CC[C@]12C [P4, Progesterone]
amplitude and density of GABAergic tonic current, varying doses [2]: dosage-dependent effect
S408/9 phosphorylation in hippocampal slices (FIG. 18) [3]: regulated
S408/9 phosphorylation in GT1-7 cells (GT1-7 cells [4]): increase

C=C[C@]12CCC(=O)C=C1CCC1C2CC[C@@]2(C)C1CC[C@@H]2C(C)=O (stereo partly drawn) [ORG OD 02-0]
amplitude and density of GABAergic tonic current, varying doses [2]: dosage-dependent effect
S408/9 phosphorylation in hippocampal slices (FIG. 18) [3]: regulated
GABA-evoked currents recorded from GT1-7 cells (GT1-7 cells [5]): sustained increases
acute modulation of function of GABAARs composed of α4β3 subunits [6]: did not acutely modulate

CN1C(=O)CN=C(c2ccccc2)c2cc(Cl)ccc21 [diazepam]
effect on GABA evoked currents in α4β3δ receptors (α4β3δ GABAA receptors): did not alter
